Measured values published in ChEMBL document CHEMBL1201862, “PubChem BioAssay data set” (2004).
Several values for one entry are separate records, joined by “and”; a condition that tells them apart may be missing. Identical values can stand only once.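 Five concentrations, 48 hours, 96-well plates. GI50 is the concentration that inhibits growth by half.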 Activity calls are given as the source filed them. Rule as the data show it: active = GI50 up to about 1.1 µM and inactive = higher.

Experiments:
Experiment in all cases: DTP human tumour cell line panel, 48 h
T47D = test system: T47D
NCI-H460 = test system: NCI-H460
HCT-15 = test system: HCT-15
IGROV-1 = test system: IGROV-1
NCI/ADR-RES = test system: NCI/ADR-RES
MDA-MB-435 = test system: MDA-MB-435
HT-29 = test system: HT-29
SNB-75 = test system: SNB-75
PC-3 = test system: PC-3
OVCAR-3 = test system: OVCAR-3
EKVX = test system: EKVX
MDA-MB-231 = test system: MDA-MB-231
HL-60 = test system: HL-60
HCC 2998 = test system: HCC 2998
UACC-257 = test system: UACC-257
KM12 = test system: KM12
CAKI-1 = test system: CAKI-1
OVCAR-5 = test system: OVCAR-5
A498 = test system: A498
MDA-N = test system: MDA-N
U-251 = test system: U-251
SK-MEL-5 = test system: SK-MEL-5
Malme-3M = test system: Malme-3M
SK-MEL-28 = test system: SK-MEL-28
MCF7 = test system: MCF7
MOLT-4 = test system: MOLT-4
NCI-H226 = test system: NCI-H226
NCI-H522 = test system: NCI-H522
COLO 205 = test system: COLO 205
SF-295 = test system: SF-295
RPMI-8226 = test system: RPMI-8226
786-0 = test system: 786-0
UACC-62 = test system: UACC-62
TK-10 = test system: TK-10
K562 = test system: K562
SNB-19 = test system: SNB-19
RXF 393 = test system: RXF 393
UO-31 = test system: UO-31
M14 = test system: M14
SW-620 = test system: SW-620
SR = test system: SR
SN12C = test system: SN12C
LOX IMVI = test system: LOX IMVI
SF-268 = test system: SF-268
SK-OV-3 = test system: SK-OV-3
CCRF-CEM = test system: CCRF-CEM
HOP-62 = test system: HOP-62
NCI-H23 = test system: NCI-H23
A549 = test system: A549
OVCAR-8 = test system: OVCAR-8
DU-145 = test system: DU-145
OVCAR-4 = test system: OVCAR-4
Hs-578T = test system: Hs-578T

## CC(=O)OCC1OC(n2c(-c3ccccc3)c(C)c(C)c(C#N)c2=S)C(OC(C)=O)C(OC(C)=O)C1OC(C)=O (configuration not stated)
T47D
  GI50: > 50 µM (inactive) and 34 µM (inactive)
NCI-H460
  GI50: > 50 µM (inactive) and 43.4 µM (inactive)
HCT-15
  GI50: 64.4 µM
IGROV-1
  GI50: > 100 µM (inactive)
NCI/ADR-RES
  GI50: 34.2 µM (inactive) and 47.4 µM (inactive)
MDA-MB-435
  GI50: 57.5 µM (inactive)
HT-29
  GI50: > 50 µM (inactive)
SNB-75
  GI50: > 100 µM (inactive)
PC-3
  GI50: 26.4 µM (inactive)
OVCAR-3
  GI50: 37.4 µM (inactive) and 27.2 µM (inactive)
EKVX
  GI50: 13.5 µM (inactive) and 14.8 µM (inactive)
MDA-MB-231
  GI50: 12.9 µM (inactive) and 12.8 µM (inactive)
HL-60
  GI50: > 100 µM (inactive)
HCC 2998
  GI50: > 50 µM (inactive) and 86.3 µM (inactive)
UACC-257
  GI50: 54.5 µM (inactive)
KM12
  GI50: > 50 µM (inactive)
CAKI-1
  GI50: > 50 µM (inactive)
OVCAR-5
  GI50: 37.3 µM (inactive)
A498
  GI50: > 50 µM (inactive) and 43.8 µM (inactive)
MDA-N
  GI50: 28.8 µM (inactive) and 18.1 µM (inactive)
U-251
  GI50: 20.3 µM (inactive)
SK-MEL-5
  GI50: > 100 µM (inactive)
Malme-3M
  GI50: > 50 µM (inactive) and 38.1 µM (inactive)
SK-MEL-28
  GI50: 72.4 µM (inactive)
MCF7
  GI50: > 50 µM (inactive)
MOLT-4
  GI50: > 50 µM (inactive)
NCI-H226
  GI50: > 50 µM (inactive)
NCI-H522
  GI50: > 50 µM (inactive) and 65.8 µM (inactive)
COLO 205
  GI50: > 100 µM (inactive)
SF-295
  GI50: 21 µM (inactive) and 23.1 µM (inactive)

## Cc1ccc(-c2cc(-c3ccco3)c(C#N)c(=S)n2C2OC(CO)C(O)C(O)C2O)cc1 (configuration not stated)
RPMI-8226
  GI50: 4.46 µM (inactive) and 6.04 µM (inactive)
NCI-H460
  GI50: 28 µM (inactive) and 36.6 µM (inactive)
HCT-15
  GI50: 94.6 µM and 49.2 µM
786-0
  GI50: 36.6 µM (inactive) and 56.8 µM (inactive)
UACC-62
  GI50: 2.23 µM (inactive) and 2.48 µM (inactive)
TK-10
  GI50: 67.8 µM (inactive) and 54.5 µM (inactive)
K562
  GI50: 39 µM (inactive)
MDA-MB-435
  GI50: 43.2 µM (inactive) and 38.9 µM (inactive)
HT-29
  GI50: 34.9 µM (inactive) and 34 µM (inactive)
SNB-75
  GI50: 66.4 µM (inactive) and 60.5 µM (inactive)
SNB-19
  GI50: 36.1 µM (inactive) and 68.9 µM (inactive)
OVCAR-3
  GI50: 21.4 µM (inactive) and 35.6 µM (inactive)
EKVX
  GI50: > 100 µM (inactive) and 95.9 µM (inactive)
RXF 393
  GI50: 18.6 µM (inactive) and 18.9 µM (inactive)
HCC 2998
  GI50: > 100 µM (inactive)
UACC-257
  GI50: 53.8 µM (inactive) and 45.3 µM (inactive)
KM12
  GI50: 17.2 µM (inactive) and 30.1 µM (inactive)
OVCAR-5
  GI50: 45.7 µM (inactive) and 39.5 µM (inactive)
A498
  GI50: 41 µM (inactive) and 28.2 µM (inactive)
MDA-N
  GI50: 30.4 µM (inactive) and 34.4 µM (inactive)
UO-31
  GI50: 18.5 µM (inactive) and 31.7 µM (inactive)
SK-MEL-28
  GI50: 52.2 µM (inactive) and 41 µM (inactive)
MCF7
  GI50: 27.9 µM (inactive) and 49 µM (inactive)
M14
  GI50: 17.7 µM (inactive) and 30.3 µM (inactive)
COLO 205
  GI50: 27.2 µM (inactive) and 35.1 µM (inactive)

## CCOC(=O)c1sc2nc(-c3ccccc3)nn2c1CBr
T47D
  GI50: 2.42 µM (inactive)
RPMI-8226
  GI50: 1.74 µM (inactive)
786-0
  GI50: 1.6 µM (inactive)
TK-10
  GI50: 2.34 µM (inactive)
IGROV-1
  GI50: 3.17 µM (inactive)
SW-620
  GI50: 1.73 µM (inactive)
K562
  GI50: 0.589 µM (active)
HT-29
  GI50: 1.89 µM (inactive)
SNB-75
  GI50: 2.24 µM (inactive)
SR
  GI50: 0.311 µM (active)
PC-3
  GI50: 2.06 µM (inactive)
EKVX
  GI50: > 10 µM (inactive)
RXF 393
  GI50: 2.59 µM (inactive)
MDA-MB-231
  GI50: 1.9 µM (inactive)
HL-60
  GI50: 0.348 µM (active)
HCC 2998
  GI50: 5.33 µM (inactive)
UACC-257
  GI50: 2.16 µM (inactive)
KM12
  GI50: 2.11 µM (inactive)
CAKI-1
  GI50: 1.5 µM (inactive)
SN12C
  GI50: 1.74 µM (inactive)
LOX IMVI
  GI50: 1.56 µM (inactive)
SK-MEL-5
  GI50: 1.77 µM (inactive)
Malme-3M
  GI50: 2.07 µM (inactive)
SF-268
  GI50: 2.04 µM (inactive)
SK-OV-3
  GI50: 3.12 µM (inactive)
CCRF-CEM
  GI50: 0.244 µM (active)
SK-MEL-28
  GI50: 1.95 µM (inactive)
HOP-62
  GI50: > 10 µM (inactive)
NCI-H23
  GI50: 1.94 µM (inactive)
MCF7
  GI50: 1.91 µM (inactive)
MOLT-4
  GI50: 0.296 µM (active)
A549
  GI50: 5.11 µM (inactive)
M14
  GI50: 1.51 µM (inactive)
OVCAR-8
  GI50: 2.07 µM (inactive)
COLO 205
  GI50: 1.9 µM (inactive)
SF-295
  GI50: 9.29 µM (inactive)
DU-145
  GI50: > 10 µM (inactive)

## Cc1nc2ccc(Br)cc2c(=O)n1-c1ccc(NC2OCC(O)C(O)C2O)cc1 (configuration not stated)
OVCAR-4
  GI50: > 100 µM (inactive) and 87.5 µM (inactive)
TK-10
  GI50: > 100 µM (inactive) and 59.3 µM (inactive)
IGROV-1
  GI50: 62.4 µM (inactive)
SNB-19
  GI50: > 100 µM (inactive)
EKVX
  GI50: > 100 µM (inactive)
OVCAR-5
  GI50: > 100 µM (inactive)
A498
  GI50: > 100 µM (inactive)
SK-MEL-5
  GI50: 58.3 µM (inactive)
SF-268
  GI50: > 100 µM (inactive) and 55.6 µM (inactive)
HOP-62
  GI50: > 100 µM (inactive)
NCI-H226
  GI50: > 100 µM (inactive)
A549
  GI50: > 100 µM (inactive)
SF-295
  GI50: > 100 µM (inactive)
Hs-578T
  GI50: 58.9 µM (inactive)
DU-145
  GI50: > 100 µM (inactive)
